# Results as given in ChEMBL document CHEMBL4028831, “Improvement of hERG-ROMK index of spirocyclic ROMK inhibitors through scaffold optimization and incorporation of novel pharmacophores” (Bioorg Med Chem Lett, 2017).
# pIC50: −log10 of the molar value. Calls of active or inactive are those of the source. The calls are words filed in the database; no cut-off is given here.
# Experiments:
# Rattus norvegicus [1] = test: Antihypertensive activity in rat spontaneous hypertensive model assessed as change in systolic blood pressure at 3 mg/kg, po qd measured after 3 days; format: functional
# Cytochrome P450 2D6 = Cytochrome P450 2D6 (Homo sapiens, UniProt P10635); test: Inhibition of CYP2D6 (unknown origin); format: ADME
# [2] = target: T1, Inward rectifier potassium channel 2 (Homo sapiens, UniProt P63252); test: Inhibition of Kir2.1 (unknown origin)
# T1 sequence (P63252 whole entry): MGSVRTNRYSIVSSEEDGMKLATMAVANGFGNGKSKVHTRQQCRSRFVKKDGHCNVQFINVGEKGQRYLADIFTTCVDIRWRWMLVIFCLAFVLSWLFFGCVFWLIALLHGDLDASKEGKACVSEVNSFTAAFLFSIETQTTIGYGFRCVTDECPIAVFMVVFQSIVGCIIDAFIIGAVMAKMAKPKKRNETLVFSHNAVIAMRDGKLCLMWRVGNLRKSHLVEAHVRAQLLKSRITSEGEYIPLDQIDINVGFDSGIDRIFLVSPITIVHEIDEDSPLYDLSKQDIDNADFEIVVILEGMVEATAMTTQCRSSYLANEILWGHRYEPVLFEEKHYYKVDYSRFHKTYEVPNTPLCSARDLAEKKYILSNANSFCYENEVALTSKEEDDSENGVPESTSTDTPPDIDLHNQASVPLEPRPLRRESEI
# [3] = Unbound fraction in guinea pig plasma at 10 mg/kg administered as iv infusion; format: ADME, organism-based, Cavia porcellus; conditions: in vivo
# [4] = Volume of distribution at steady state in Beagle dog at 1 mg/kg, iv; format: ADME, organism-based, Canis lupus familiaris; conditions: in vivo, read-out: Vdss
# [5] = Half life in Beagle dog at 1 mg/kg, iv; format: ADME, organism-based, Canis lupus familiaris; conditions: in vivo
# Rattus norvegicus [6] = test: Antihypertensive activity in rat spontaneous hypertensive model assessed as induction of kaliuresis at 3 mg/kg, po qd measured after 3 days; format: functional, organism-based
# [7] = Clearance in Beagle dog at 1 mg/kg, iv; format: ADME, organism-based, Canis lupus familiaris; conditions: in vivo
# Cytochrome P450 3A4 [8] = target: T2, Cytochrome P450 3A4 (Homo sapiens, UniProt P08684); test: Time dependent inhibition of CYP3A4 (unknown origin) in absence of NADPH; format: ADME
# Homo sapiens = species: Homo sapiens; test: Unbound Cmax in human; format: ADME
# Rattus norvegicus [9] = species: Rattus norvegicus; conditions: in vivo, po, 2 mg/kg
# Cytochrome P450 3A4 [10] = target: T2, Cytochrome P450 3A4; test: Time dependent inhibition of CYP3A4 (unknown origin) in presence of NADPH; format: ADME
# Cavia porcellus [11] = test: Cardiotoxicity in anesthetized cardiovascular guinea pig model assessed as prolongation of QTc interval at 7 mg/kg administered as iv infusion relative to control; format: toxicity, organism-based; conditions: in vivo
# [12] = target: Sodium-dependent serotonin transporter (Homo sapiens, UniProt P31645); test: Inhibition of human SERT
# [13] = Fraction unbound in dog plasma; format: ADME, cell-free, Canis lupus familiaris
# [14] = target: Voltage-dependent L-type calcium channel subunit alpha-1C (Homo sapiens, UniProt Q13936); test: Inhibition of Cav1.2 (unknown origin)
# [15] = Clearance in Wistar Han rat at 1 mg/kg, iv or 2 mg/kg, po; conditions: in vivo
# [16] = Unbound fraction in guinea pig plasma at 7 mg/kg administered as iv infusion; format: ADME, organism-based, Cavia porcellus; conditions: in vivo
# [17] = Fraction unbound in human plasma; format: ADME, cell-free
# Cytochrome P450 2C8 = target: T3, Cytochrome P450 2C8 (Homo sapiens, UniProt P10632); test: Inhibition of CYP2C8 (unknown origin); format: ADME
# T3 sequence (P10632 whole entry): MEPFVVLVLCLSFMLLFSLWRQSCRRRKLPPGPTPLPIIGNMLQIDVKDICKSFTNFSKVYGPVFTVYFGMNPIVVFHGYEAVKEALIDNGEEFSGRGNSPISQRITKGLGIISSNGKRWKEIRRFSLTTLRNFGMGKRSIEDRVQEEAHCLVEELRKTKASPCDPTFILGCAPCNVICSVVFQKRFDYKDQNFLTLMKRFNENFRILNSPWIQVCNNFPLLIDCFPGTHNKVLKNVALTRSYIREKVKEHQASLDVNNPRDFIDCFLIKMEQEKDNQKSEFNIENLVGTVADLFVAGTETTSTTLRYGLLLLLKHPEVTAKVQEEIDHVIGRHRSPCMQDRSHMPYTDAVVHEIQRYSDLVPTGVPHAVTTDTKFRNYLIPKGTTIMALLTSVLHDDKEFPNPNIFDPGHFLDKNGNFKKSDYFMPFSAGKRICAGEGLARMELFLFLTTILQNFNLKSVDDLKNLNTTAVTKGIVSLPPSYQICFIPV
# in vivo = conditions: Wistar Han, rat, po, 2 mg/kg
# [18] = target: T4, ATP-sensitive inward rectifier potassium channel 1 (Homo sapiens, UniProt P48048); test: Inhibition of human ROMK expressed in CHO cells at -70 mV holding potential after 6 mins by whole cell patch clamp Qpatch method; format: cell-based
# T4 sequence (P48048 whole entry): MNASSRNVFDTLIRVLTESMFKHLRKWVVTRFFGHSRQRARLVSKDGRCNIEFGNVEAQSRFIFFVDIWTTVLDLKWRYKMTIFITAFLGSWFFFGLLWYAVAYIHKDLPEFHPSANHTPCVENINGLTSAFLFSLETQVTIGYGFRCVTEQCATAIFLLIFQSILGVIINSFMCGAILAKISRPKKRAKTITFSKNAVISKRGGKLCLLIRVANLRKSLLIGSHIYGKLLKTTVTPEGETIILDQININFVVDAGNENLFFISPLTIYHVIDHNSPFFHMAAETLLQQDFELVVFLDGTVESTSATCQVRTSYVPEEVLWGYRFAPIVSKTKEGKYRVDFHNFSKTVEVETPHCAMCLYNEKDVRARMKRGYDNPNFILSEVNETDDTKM
# [19] = target: T5, ATP-sensitive inward rectifier potassium channel 1 (Rattus norvegicus, UniProt P35560); test: Inhibition of rat ROMK expressed in HEK293 cells after 30 mins by FLIPR based thallium flux assay; format: cell-based
# T5 sequence (P35560 whole entry): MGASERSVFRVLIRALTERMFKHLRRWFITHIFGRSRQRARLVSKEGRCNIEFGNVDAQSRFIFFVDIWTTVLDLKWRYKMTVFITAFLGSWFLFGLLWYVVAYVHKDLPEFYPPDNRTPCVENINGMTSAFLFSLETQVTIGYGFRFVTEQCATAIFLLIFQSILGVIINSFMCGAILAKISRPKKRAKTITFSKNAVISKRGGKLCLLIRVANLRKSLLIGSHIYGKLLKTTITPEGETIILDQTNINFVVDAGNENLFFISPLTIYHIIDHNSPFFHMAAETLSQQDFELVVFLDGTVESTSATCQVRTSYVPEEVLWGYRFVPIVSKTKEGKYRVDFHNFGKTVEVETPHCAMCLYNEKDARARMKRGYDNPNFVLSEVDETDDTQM
# [20] = Unbound fraction in guinea pig plasma at 3 mg/kg administered as iv infusion; format: ADME, organism-based, Cavia porcellus; conditions: in vivo
# Cavia porcellus [21] = test: Cardiotoxicity in anesthetized cardiovascular guinea pig model assessed as prolongation of QTc interval at 10 mg/kg administered as iv infusion relative to control; format: toxicity, organism-based; conditions: in vivo
# Cavia porcellus [22] = test: Cardiotoxicity in anesthetized cardiovascular guinea pig model assessed as prolongation of QTc interval administered as iv infusion; format: toxicity, organism-based; conditions: in vivo
# Cytochrome P450 3A4 [23] = target: T2, Cytochrome P450 3A4; test: Inhibition of CYP3A4 (unknown origin); format: ADME
# T2 sequence (P08684 whole entry): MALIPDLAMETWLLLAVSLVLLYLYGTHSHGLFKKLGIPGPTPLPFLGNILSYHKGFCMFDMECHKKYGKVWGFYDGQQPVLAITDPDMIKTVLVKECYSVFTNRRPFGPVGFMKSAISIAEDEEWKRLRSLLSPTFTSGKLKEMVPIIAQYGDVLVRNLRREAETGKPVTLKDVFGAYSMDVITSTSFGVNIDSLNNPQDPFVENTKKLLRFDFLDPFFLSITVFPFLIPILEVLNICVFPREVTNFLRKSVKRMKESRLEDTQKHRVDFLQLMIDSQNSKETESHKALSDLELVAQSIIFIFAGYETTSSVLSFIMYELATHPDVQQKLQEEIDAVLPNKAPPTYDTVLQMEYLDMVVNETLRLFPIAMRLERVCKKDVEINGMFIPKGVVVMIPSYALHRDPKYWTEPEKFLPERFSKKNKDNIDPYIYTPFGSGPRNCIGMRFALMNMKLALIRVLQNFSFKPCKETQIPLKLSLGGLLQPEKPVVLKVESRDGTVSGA
# Chain of Sodium-dependent serotonin transporter (P31645 whole entry): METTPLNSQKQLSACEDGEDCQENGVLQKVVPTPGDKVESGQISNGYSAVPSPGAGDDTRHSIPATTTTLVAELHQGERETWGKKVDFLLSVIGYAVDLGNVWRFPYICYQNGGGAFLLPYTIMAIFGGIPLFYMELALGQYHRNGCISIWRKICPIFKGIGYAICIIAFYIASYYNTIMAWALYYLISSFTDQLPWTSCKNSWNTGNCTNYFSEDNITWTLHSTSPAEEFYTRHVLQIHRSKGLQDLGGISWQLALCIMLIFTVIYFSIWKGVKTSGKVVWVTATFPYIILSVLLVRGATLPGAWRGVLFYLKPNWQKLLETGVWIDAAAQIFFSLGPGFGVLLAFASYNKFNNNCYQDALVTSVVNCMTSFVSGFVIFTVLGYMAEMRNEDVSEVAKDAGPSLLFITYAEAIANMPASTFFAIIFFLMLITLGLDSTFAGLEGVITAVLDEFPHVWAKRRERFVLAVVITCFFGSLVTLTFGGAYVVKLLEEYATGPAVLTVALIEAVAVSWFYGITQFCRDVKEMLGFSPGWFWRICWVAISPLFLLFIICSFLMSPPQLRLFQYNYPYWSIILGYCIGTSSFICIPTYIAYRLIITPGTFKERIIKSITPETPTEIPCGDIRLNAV
# Chain of Voltage-dependent L-type calcium channel subunit alpha-1C (Q13936 whole entry): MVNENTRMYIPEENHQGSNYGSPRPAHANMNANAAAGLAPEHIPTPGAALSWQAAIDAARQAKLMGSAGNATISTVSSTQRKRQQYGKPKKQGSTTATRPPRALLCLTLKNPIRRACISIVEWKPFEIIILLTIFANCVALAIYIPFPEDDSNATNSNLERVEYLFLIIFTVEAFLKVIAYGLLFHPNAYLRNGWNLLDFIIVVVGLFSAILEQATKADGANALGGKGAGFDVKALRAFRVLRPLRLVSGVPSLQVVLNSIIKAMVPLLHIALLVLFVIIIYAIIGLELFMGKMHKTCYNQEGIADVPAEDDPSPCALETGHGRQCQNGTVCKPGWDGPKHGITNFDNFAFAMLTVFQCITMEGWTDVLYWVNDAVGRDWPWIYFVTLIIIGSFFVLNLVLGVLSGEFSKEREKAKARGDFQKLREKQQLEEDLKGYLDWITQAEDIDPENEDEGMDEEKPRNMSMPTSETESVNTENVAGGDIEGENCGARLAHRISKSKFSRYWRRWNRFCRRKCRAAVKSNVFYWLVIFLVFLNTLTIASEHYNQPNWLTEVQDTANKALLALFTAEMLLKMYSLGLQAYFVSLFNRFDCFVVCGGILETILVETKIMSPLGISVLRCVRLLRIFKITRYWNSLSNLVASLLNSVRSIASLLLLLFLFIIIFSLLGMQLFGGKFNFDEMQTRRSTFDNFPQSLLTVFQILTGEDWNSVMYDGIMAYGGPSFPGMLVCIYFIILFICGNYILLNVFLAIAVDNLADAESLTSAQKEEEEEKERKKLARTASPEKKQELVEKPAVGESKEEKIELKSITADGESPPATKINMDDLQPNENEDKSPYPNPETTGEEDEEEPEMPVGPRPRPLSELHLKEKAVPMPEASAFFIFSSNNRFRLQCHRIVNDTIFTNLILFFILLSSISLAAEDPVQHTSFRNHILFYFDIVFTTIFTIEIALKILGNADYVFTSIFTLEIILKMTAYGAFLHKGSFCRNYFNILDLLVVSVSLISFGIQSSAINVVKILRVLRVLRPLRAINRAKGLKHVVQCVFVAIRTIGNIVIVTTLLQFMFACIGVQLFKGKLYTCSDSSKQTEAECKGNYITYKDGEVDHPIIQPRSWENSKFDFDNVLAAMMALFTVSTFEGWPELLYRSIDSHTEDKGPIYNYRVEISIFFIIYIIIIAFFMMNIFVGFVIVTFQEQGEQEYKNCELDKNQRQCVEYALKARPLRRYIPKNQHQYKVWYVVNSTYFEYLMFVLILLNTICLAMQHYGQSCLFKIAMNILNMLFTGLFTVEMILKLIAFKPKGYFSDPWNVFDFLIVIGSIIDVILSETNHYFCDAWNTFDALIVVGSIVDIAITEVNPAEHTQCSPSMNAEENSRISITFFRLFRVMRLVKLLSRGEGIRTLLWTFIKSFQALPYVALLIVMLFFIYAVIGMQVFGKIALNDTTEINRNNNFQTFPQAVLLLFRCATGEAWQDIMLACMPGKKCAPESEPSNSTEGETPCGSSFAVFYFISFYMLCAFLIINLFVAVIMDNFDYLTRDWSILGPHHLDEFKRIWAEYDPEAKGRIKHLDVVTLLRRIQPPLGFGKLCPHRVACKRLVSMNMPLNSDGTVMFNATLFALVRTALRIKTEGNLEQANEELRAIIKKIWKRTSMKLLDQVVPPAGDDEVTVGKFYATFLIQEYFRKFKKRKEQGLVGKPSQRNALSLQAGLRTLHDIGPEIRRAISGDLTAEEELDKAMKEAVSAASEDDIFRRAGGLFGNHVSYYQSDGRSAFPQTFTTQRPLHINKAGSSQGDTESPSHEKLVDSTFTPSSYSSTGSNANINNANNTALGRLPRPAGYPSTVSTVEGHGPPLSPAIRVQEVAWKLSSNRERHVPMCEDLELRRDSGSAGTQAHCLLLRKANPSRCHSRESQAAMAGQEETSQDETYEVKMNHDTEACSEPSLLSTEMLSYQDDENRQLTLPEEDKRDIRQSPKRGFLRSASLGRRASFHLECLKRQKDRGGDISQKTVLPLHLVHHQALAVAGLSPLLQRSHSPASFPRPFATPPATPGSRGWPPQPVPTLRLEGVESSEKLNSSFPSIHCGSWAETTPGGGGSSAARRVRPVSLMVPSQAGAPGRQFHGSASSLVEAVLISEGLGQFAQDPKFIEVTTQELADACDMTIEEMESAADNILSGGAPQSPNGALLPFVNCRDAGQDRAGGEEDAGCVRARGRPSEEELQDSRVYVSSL
# Chain of Cytochrome P450 2D6 (P10635 whole entry): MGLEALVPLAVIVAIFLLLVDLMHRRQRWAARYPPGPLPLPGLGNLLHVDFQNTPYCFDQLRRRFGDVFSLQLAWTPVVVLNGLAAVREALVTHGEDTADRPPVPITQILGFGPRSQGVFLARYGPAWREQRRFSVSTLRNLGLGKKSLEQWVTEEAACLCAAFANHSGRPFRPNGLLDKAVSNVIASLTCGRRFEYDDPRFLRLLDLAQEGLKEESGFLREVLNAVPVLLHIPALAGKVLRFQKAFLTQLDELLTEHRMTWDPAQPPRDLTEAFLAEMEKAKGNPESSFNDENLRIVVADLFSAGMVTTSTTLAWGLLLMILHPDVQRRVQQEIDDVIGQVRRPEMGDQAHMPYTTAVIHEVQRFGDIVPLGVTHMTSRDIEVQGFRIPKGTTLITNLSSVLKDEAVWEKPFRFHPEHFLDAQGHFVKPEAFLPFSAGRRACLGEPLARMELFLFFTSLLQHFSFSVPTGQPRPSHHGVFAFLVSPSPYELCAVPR
structure (smiles),measurement,setting,value
Cc1c([C@@H](O)CN2CCC3(CC2)CCN(c2ccc(=O)n(C)n2)C3=O)ccc2c1COC2=O,Activity,Rattus norvegicus [1],-14 mmHg
same,pIC50,Cytochrome P450 2D6,< 4.30
same,pIC50,[2],< 4.00
same,Cp(f),[3],22.5 µM
same,Vd,[4],5 L/kg
same,half-life,[5],5.8 h
same,Activity,Rattus norvegicus [6],inactive
same,clearance,[7],18.3 mL/min/kg
same,pIC50,Cytochrome P450 3A4 [8],< 4.30
same,fCmax,Homo sapiens,0.12 µM
same,AUC/dose,Rattus norvegicus [9],1.2 µM·kg·h/mg
same,pIC50,Cytochrome P450 3A4 [10],< 4.30
same,Activity,Cavia porcellus [11],12%
same,pIC50,[12],4.98
same,fraction unbound,[13],0.405
same,pIC50,[14],< 4.52
same,clearance,[15],25 mL/min/kg
same,Cp(f),[16],13.5 µM
same,fraction unbound,[17],0.456
same,pIC50,Cytochrome P450 2C8,< 4.30
same,bioavailability,in vivo,78%
same,pIC50,[18],7.77
same,pIC50,[19],7.42
same,Cp(f),[20],5.3 µM
same,Activity,Cavia porcellus [21],16%
same,Activity,Cavia porcellus [22],Dose-dependent effect
same,pIC50,Cytochrome P450 3A4 [23],< 4.30
